Test results reported in patent US11000033B2, “Ketone or oxime compound, and herbicide” (NISSAN CHEMICAL CORPORATION, priority 2014, dated 2021).

Tests used:
Assay type in all cases: in vivo
Lolium multiflorum Lam. [1] = experiment: Test Example 4: herbicidal effect by soil treatment (symbol K); conditions: application herbicide amount 320 g/ha
In short: (§1)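 Seeds were sown in sterilized diluvial soil, covered with about 1.5 cm of soil, and the soil surface was sprayed with a water-diluted emulsion of the compound at a predetermined rate. Plants grew in a greenhouse at 25° C. to 30° C.; effects were scored visually 3 weeks after application.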

Chenopodium album = experiment: Test Example 5: herbicidal effect by foliage application, plastic box (symbol O); conditions: 320 g/ha, 3 weeks after application
In short: (§2)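 Herbicide, formulated as an emulsion and diluted in water, is sprayed onto the aerial parts of 14-day seedlings. These were grown at 25° C. to 30° C. in sterilized diluvial soil; effects are graded after 3 weeks.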

[2] = tested on: Echinochloa crus-galli var. crus-galli; experiment: Test Example 4: herbicidal effect by soil treatment (symbol H); conditions: application herbicide amount 320 g/ha
In short: as §1

beet = experiment: Test Example 4: effect on crop by soil treatment (symbol f); conditions: application herbicide amount 320 g/ha
In short: (§3)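 Plants are raised in a greenhouse (25° C. to 30° C.) from spot-sown seed, which sits under about 1.5 cm of sterilized diluvial soil in a box shared with weed species.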

rapeseed [3] = experiment: Test Example 5: effect on crop by foliage application, plastic box (symbol g); conditions: 320 g/ha, 3 weeks after application
In short: (§4)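 Soil: sterilized diluvial. Container: plastic box, 21 × 13 cm, 7 cm deep. Sowing: spot-like, ~1.5 cm cover. Growth: greenhouse, 25° C. to 30° C.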

[4] = tested on: directly sowed rice plant; experiment: Test Example 3: effect on crop by foliage application, Wagner pot (symbol b); conditions: application herbicide amount 320 g/ha
In short: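 Greenhouse culture at 25–30 °C of seeded rice, Cyperus difformis, Leptochloa chinensis and Echinochloa crus-galli var. crus-galli, in alluvial soil held under 0.1–0.5 cm of water in a Wagner pot.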

Digitaria ciliaris [5] = experiment: Test Example 4: herbicidal effect by soil treatment (symbol F); conditions: application herbicide amount 320 g/ha
In short: as §1

Alopecurus myosuroides = experiment: Test Example 4: herbicidal effect by soil treatment (symbol J); conditions: application herbicide amount 320 g/ha
In short: as §1

rapeseed [6] = experiment: Test Example 4: effect on crop by soil treatment (symbol g); conditions: application herbicide amount 320 g/ha
In short: as §3

Lolium multiflorum Lam. [7] = experiment: Test Example 5: herbicidal effect by foliage application, plastic box (symbol K); conditions: 320 g/ha, 3 weeks after application
In short: as §2

Stellaria media = experiment: Test Example 5: herbicidal effect by foliage application, plastic box (symbol P); conditions: 320 g/ha, 3 weeks after application
In short: as §2

wheat = experiment: Test Example 5: effect on crop by foliage application, plastic box (symbol e); conditions: 320 g/ha, 3 weeks after application
In short: as §4

Digitaria ciliaris [8] = experiment: Test Example 5: herbicidal effect by foliage application, plastic box (symbol F); conditions: 320 g/ha, 3 weeks after application
In short: as §2

Apera spica-venti [9] = experiment: Test Example 4: herbicidal effect by soil treatment (symbol L); conditions: application herbicide amount 320 g/ha
In short: as §1

rice = experiment: Test Example 4: effect on crop by soil treatment (symbol b); conditions: application herbicide amount 320 g/ha
In short: as §3

Avena fatua [10] = experiment: Test Example 4: herbicidal effect by soil treatment (symbol I); conditions: application herbicide amount 320 g/ha
In short: as §1

Amaranthus retroflexus = experiment: Test Example 5: herbicidal effect by foliage application, plastic box (symbol N); conditions: 320 g/ha, 3 weeks after application
In short: as §2

Monochoria vaginalis = experiment: Test Example 2: herbicidal activity, application during weed generation in submerged conditions (symbol C); conditions: Table 23; application herbicide amount 320 g/ha; grade 0-5 by criteria of Test Example 1
In short: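 Visual herbicidal ratings, taken three weeks after dosing, reflect post-emergence water-surface application to seedlings at one to two leaves. Conditions: co-sown weeds in alluvial soil flooded to 4 cm, greenhouse held at 25° C. to 30° C.; compound given as water-diluted emulsion at a fixed herbicide amount.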

Apera spica-venti [11] = experiment: Test Example 5: herbicidal effect by foliage application, plastic box (symbol L); conditions: 320 g/ha, 3 weeks after application
In short: as §2

Avena fatua [12] = experiment: Test Example 5: herbicidal effect by foliage application, plastic box (symbol I); conditions: 320 g/ha, 3 weeks after application
In short: as §2

Abutilon theophrasti = experiment: Test Example 5: herbicidal effect by foliage application, plastic box (symbol M); conditions: 320 g/ha, 3 weeks after application
In short: as §2

Veronica persica = experiment: Test Example 5: herbicidal effect by foliage application, plastic box (symbol R); conditions: 320 g/ha, 3 weeks after application
In short: as §2

Row | SMILES | K: Lolium multiflorum Lam., herbicidal effect grade (Lolium multiflorum Lam. [1]) | O: Chenopodium album, herbicidal effect (criteria of Test Example 1) (Chenopodium album) | H: Echinochloa crus-galli var. crus-galli, herbicidal effect grade [2] | f: beet, effect on crop grade (beet) | g: rapeseed, effect on crop (criteria of Test Example 1) (rapeseed [3]) | effect on crop b (directly sowed rice plant), grade 0-5 [4] | F: Digitaria ciliaris, herbicidal effect grade (Digitaria ciliaris [5]) | J: Alopecurus myosuroides, herbicidal effect grade (Alopecurus myosuroides) | g: rapeseed, effect on crop grade (rapeseed [6]) | K: Lolium multiflorum Lam., herbicidal effect (criteria of Test Example 1) (Lolium multiflorum Lam. [7]) | P: Stellaria media, herbicidal effect (criteria of Test Example 1) (Stellaria media) | e: wheat, effect on crop (criteria of Test Example 1) (wheat) | F: Digitaria ciliaris, herbicidal effect (criteria of Test Example 1) (Digitaria ciliaris [8]) | L: Apera spica-venti, herbicidal effect grade (Apera spica-venti [9]) | N: Amaranthus retroflexus, herbicidal effect (criteria of Test Example 1) (Amaranthus retroflexus) | Herbicidal effect grade, C: Monochoria vaginalis (Monochoria vaginalis) | L: Apera spica-venti, herbicidal effect (criteria of Test Example 1) (Apera spica-venti [11]) | I: Avena fatua, herbicidal effect (criteria of Test Example 1) (Avena fatua [12]) | M: Abutilon theophrasti, herbicidal effect (criteria of Test Example 1) (Abutilon theophrasti) | R: Veronica persica, herbicidal effect (criteria of Test Example 1) (Veronica persica) | other results
1 | CON=C(C)CC1CC(O)=C(c2c(C)cc(-c3ccc(OC(F)(F)F)cc3)cc2C)C1=O (mixture of isomers) [6-056] | 0 (Herbicidal ratio of 5% or lower (almost no effect)) | 3 (Herbicidal ratio of 40% or higher and lower than 70%) | 0 (Herbicidal ratio of 5% or lower (almost no effect)) | 0 (Herbicidal ratio of 5% or lower (almost no effect)) | 3 (Herbicidal ratio of 40% or higher and lower than 70%) | 5 (Herbicidal ratio of 90% or more (almost completely withered)) | 0 (Herbicidal ratio of 5% or lower (almost no effect)) | 0 (Herbicidal ratio of 5% or lower (almost no effect)) | 0 (Herbicidal ratio of 5% or lower (almost no effect)) | 4 (Herbicidal ratio of 70% or higher and lower than 90%) | 0 (Herbicidal ratio of 5% or lower (almost no effect)) | 0 (Herbicidal ratio of 5% or lower (almost no effect)) | 5 (Herbicidal ratio of 90% or more (almost completely withered)) | 0 (Herbicidal ratio of 5% or lower (almost no effect)) | 0 (Herbicidal ratio of 5% or lower (almost no effect)) | 0 (Herbicidal ratio of 5% or lower (almost no effect)) | 3 (Herbicidal ratio of 40% or higher and lower than 70%) | 3 (Herbicidal ratio of 40% or higher and lower than 70%) | 0 (Herbicidal ratio of 5% or lower (almost no effect)) | 0 (Herbicidal ratio of 5% or lower (almost no effect)) | b: directly sowed rice plant, effect on crop grade (rice): 1 (Herbicidal ratio of 5% or higher and lower than 20%); I: Avena fatua, herbicidal effect grade (Avena fatua [10]): 0 (Herbicidal ratio of 5% or lower (almost no effect))
2 | CC(=O)CC1CC(O)=C(c2c(C)cc(-c3ccc(Cl)cc3)cc2C)C1=O (stereo not drawn) [7-008] |  | 2 (Herbicidal ratio of 20% or higher and lower than 40%) |  |  | 3 (Herbicidal ratio of 40% or higher and lower than 70%) | 5 (Herbicidal ratio of 90% or more (almost completely withered)) |  |  |  | 5 (Herbicidal ratio of 90% or more (almost completely withered)) | 1 (Herbicidal ratio of 5% or higher and lower than 20%) | 4 (Herbicidal ratio of 70% or higher and lower than 90%) | 5 (Herbicidal ratio of 90% or more (almost completely withered)) |  | 0 (Herbicidal ratio of 5% or lower (almost no effect)) | 0 (Herbicidal ratio of 5% or lower (almost no effect)) | 5 (Herbicidal ratio of 90% or more (almost completely withered)) | 5 (Herbicidal ratio of 90% or more (almost completely withered)) | 1 (Herbicidal ratio of 5% or higher and lower than 20%) | 3 (Herbicidal ratio of 40% or higher and lower than 70%) | Herbicidal effect grade, K: Lolium multiflorum Lam. (Lolium multiflorum Lam. [1]): 5 (Herbicidal ratio of 90% or more (almost completely withered)); Herbicidal effect grade, H: Echinochloa crus-galli var. crus-galli [2]: 5 (Herbicidal ratio of 90% or more (almost completely withered)); Effect on crop grade, f: beet (beet): 0 (Herbicidal ratio of 5% or lower (almost no effect)); Herbicidal effect grade, F: Digitaria ciliaris (Digitaria ciliaris [5]): 5 (Herbicidal ratio of 90% or more (almost completely withered)); Herbicidal effect grade, J: Alopecurus myosuroides (Alopecurus myosuroides): 5 (Herbicidal ratio of 90% or more (almost completely withered)); Effect on crop grade, g: rapeseed (rapeseed [6]): 0 (Herbicidal ratio of 5% or lower (almost no effect)); Herbicidal effect grade, L: Apera spica-venti (Apera spica-venti [9]): 5 (Herbicidal ratio of 90% or more (almost completely withered)); Effect on crop grade, b: directly sowed rice plant (rice): 5 (Herbicidal ratio of 90% or more (almost completely withered)); Herbicidal effect grade, I: Avena fatua (Avena fatua [10]): 3 (Herbicidal ratio of 40% or higher and lower than 70%)
3 | CON=C(C)CC1CC(OC(=O)N2CCOCC2)=C(c2c(C)cc(-c3ccc(Cl)cc3)cc2OC)C1=O (stereo not drawn) [6-078, 2-(4′-chloro-3-methoxy-5-methyl-[1,1′-biphenyl]-4-yl)-4-{2-(methoxyimino)propyl}-3-oxocyclopent-1-ene-1-yl morpholine-4-carboxylate] | 0 (Herbicidal ratio of 5% or lower (almost no effect)) | 1 (Herbicidal ratio of 5% or higher and lower than 20%) | 0 (Herbicidal ratio of 5% or lower (almost no effect)) | 0 (Herbicidal ratio of 5% or lower (almost no effect)) | 4 (Herbicidal ratio of 70% or higher and lower than 90%) | 5 (Herbicidal ratio of 90% or more (almost completely withered)) | 5 (Herbicidal ratio of 90% or more (almost completely withered)) | 0 (Herbicidal ratio of 5% or lower (almost no effect)) | 0 (Herbicidal ratio of 5% or lower (almost no effect)) | 4 (Herbicidal ratio of 70% or higher and lower than 90%) | 3 (Herbicidal ratio of 40% or higher and lower than 70%) | 5 (Herbicidal ratio of 90% or more (almost completely withered)) | 5 (Herbicidal ratio of 90% or more (almost completely withered)) | 3 (Herbicidal ratio of 40% or higher and lower than 70%) | 0 (Herbicidal ratio of 5% or lower (almost no effect)) | 3 (Herbicidal ratio of 40% or higher and lower than 70%) | 5 (Herbicidal ratio of 90% or more (almost completely withered)) | 5 (Herbicidal ratio of 90% or more (almost completely withered)) | 4 (Herbicidal ratio of 70% or higher and lower than 90%) | 3 (Herbicidal ratio of 40% or higher and lower than 70%) | b: directly sowed rice plant, effect on crop grade (rice): 1 (Herbicidal ratio of 5% or higher and lower than 20%); I: Avena fatua, herbicidal effect grade (Avena fatua [10]): 3 (Herbicidal ratio of 40% or higher and lower than 70%)
